According to patent publication US12286425B2, “Herbicidally active bicyclic benzamides” (Bayer Aktiengesellschaft, priority 2018, dated 2025):

Tests used:
Assay type in all cases: in vivo
[1] = tested on: monocotyledonous and dicotyledonous weeds and crop plants; assay: Post-emergence herbicidal action and crop plant compatibility (PO), including comparison with A-117; conditions: for Herbicidal activity ABUTH: Abutilon theophrasti; for Herbicidal activity ALOMY: Alopecurus myosuroides; for Herbicidal activity AMARE: Amaranthus retroflexus; for herbicidal activity AVEFA: Avena fatua; for Herbicidal activity ECHCG: Echinochloa crus-galli; for Herbicidal activity PHBPU: Ipomoea purpurea; for Herbicidal activity LOLMU: Lolium multiflorum; for Herbicidal activity MATIN: Matricaria inodora; for Herbicidal activity POLCO: Polygonum convolvulus; for Herbicidal activity SETVI: Setaria viridis; for Herbicidal activity STEME: Stellaria media; for Herbicidal activity VERPE: Veronica persica; for Herbicidal activity VIOTR: Viola tricolor
Experimental: 2. Post-emergence herbicidal action and crop plant compatibility (post-emergence, PO) Seeds of monocotyledonous and dicotyledonous weeds and crop plants are placed in sandy loam in plastic or organic planting pots, covered with soil and cultivated in a greenhouse under controlled growth conditions. 2 to 3 weeks after sowing, the test plants are treated at the one-leaf stage. The compounds of the invention, formulated in the form of wettable powders (WP) or as emulsion concentrates (EC), are then sprayed onto the green parts of the plants as aqueous suspension or emulsion with addition of 0.5% additive at a water application rate of […] (converted). After the test plants had been kept in the greenhouse under optimum growth conditions for about 3 weeks, the activity of the preparations is rated visually in comparison to untreated controls. The tables below show the herbicidal activity of numerous compounds according to the invention against important harmful plants. For example, 100% activity=the plants have died, 0% activity=like control plants.
(§1) In a comparative experiment, by way of example, the herbicidal activity of compound No. 2-13 according to the invention was compared to that of compound No. A-117 known from WO 2013/076315 A2.

[2] = tested on: monocotyledonous and dicotyledonous weed plants and crop plants; assay: Pre-emergence herbicidal action and crop plant compatibility (PE), other species and comparison with A-117; conditions: for Herbicidal activity ABUTH / Herbicidal activity AMARE / Herbicidal activity CYPES / Herbicidal activity ECHCG / Herbicidal activity MATIN / Herbicidal activity POLCO / Herbicidal activity STEME / Herbicidal activity VIOTR: pre-emergence (PE), application rate 320, scored visually after about 3 weeks; for Herbicidal activity ABUTH: Abutilon theophrasti; for Herbicidal activity AMARE: Amaranthus retroflexus; for Herbicidal activity CYPES: Cyperus esculentus; for Herbicidal activity ECHCG: Echinochloa crus-galli; for Herbicidal activity MATIN: Matricaria inodora; for Herbicidal activity POLCO: Polygonum convolvulus; for Herbicidal activity STEME: Stellaria media; for Herbicidal activity VIOTR: Viola tricolor
Source text: (§2) 1. Pre-emergence herbicidal action and crop plant compatibility (pre-emergence, PE) Seeds of monocotyledonous and dicotyledonous weed plants and crop plants are placed in plastic or organic planting pots and covered with soil. The compounds of the invention, formulated in the form of wettable powders (WP) or as emulsion concentrates (EC), are then applied onto the surface of the covering soil as aqueous suspension or emulsion with addition of 0.5% additive at a water application rate of […] (converted). After the treatment, the pots are placed in a greenhouse and kept under good growth conditions for the trial plants. After about 3 weeks, the effect of the preparations is scored visually in comparison with untreated controls as percentages. The tables below show the herbicidal activity of numerous compounds according to the invention against important harmful plants. For example, 100% activity=the plants have died, 0% activity=like control plants.
as §1

[3] = tested on: SETVI; assay: Pre-emergence herbicidal action (PE), greenhouse pot test, SETVI; conditions: for Herbicidal activity SETVI: pre-emergence (PE), Setaria viridis, application rate 320, scored visually after about 3 weeks
Source text: as §2

[4] = tested on: AVEFA; assay: Pre-emergence herbicidal action (PE), greenhouse pot test, AVEFA; conditions: for herbicidal activity AVEFA: pre-emergence (PE), application rate 320, scored visually after about 3 weeks vs untreated controls, 100% = plants have died, 0% = like control plants
Source text: as §2

[5] = post-emergence (PO), application rate 80, rated visually after about 3 weeks

Cn1nnnc1NC(=O)c1ccc(C(F)(F)F)c2c1OCCS2(=O)=O [Example 2-20, 5-(trifluoromethyl)-2,3-dihydro-1,4-benzoxathiine-N-(1-methyltetrazol-5-yl)-8-carboxamide 4,4-dioxide]
Herbicidal activity ABUTH [1, 5]: 100% | Herbicidal activity ALOMY [1, 5]: 80% | Herbicidal activity AMARE [1, 5]: 100% | herbicidal activity AVEFA [1, 5]: 80% | Herbicidal activity CYPES ([1]; post-emergence (PO), Cyperus esculentus, application rate 80, rated visually after about 3 weeks): 80% | Herbicidal activity ECHCG [1, 5]: 90% | Herbicidal activity PHBPU [1, 5]: 90% | Herbicidal activity LOLMU [1, 5]: 80% | Herbicidal activity MATIN [1, 5]: 100% | Herbicidal activity POLCO [1, 5]: 100% | Herbicidal activity SETVI [1, 5]: 90% | Herbicidal activity STEME [1, 5]: 90% | Herbicidal activity VERPE [1, 5]: 100% | Herbicidal activity VIOTR [1, 5]: 100% | Herbicidal activity ABUTH [2]: 100% | Herbicidal activity AMARE [2]: 100% | Herbicidal activity CYPES [2]: 100% | Herbicidal activity ECHCG [2]: 100% | Herbicidal activity MATIN [2]: 100% | Herbicidal activity POLCO [2]: 100% | Herbicidal activity STEME [2]: 90% | Herbicidal activity VIOTR [2]: 100% | Herbicidal activity SETVI [3]: 100% | herbicidal activity AVEFA [4]: 100%

Cn1nnnc1NC(=O)c1ccc(C(F)(F)F)c2c1OCCS2 [Example 2-13, 5-(trifluoromethyl)-2,3-dihydro-1,4-benzoxathiine-N-(1-methyltetrazol-5-yl)-8-carboxamide]
Herbicidal action against ABUTH ([1]; post-emergence (PO) comparative experiment with A-117, Abutilon theophrasti, dosage 80 g/ha): 100% | Herbicidal action against ALOMY ([1]; post-emergence (PO) comparative experiment with A-117, Alopecurus myosuroides, dosage 80 g/ha): 90% | Herbicidal action against AVEFA ([1]; post-emergence (PO) comparative experiment with A-117, Avena fatua, dosage 80 g/ha): 90% | Herbicidal action against LOLMU ([1]; post-emergence (PO) comparative experiment with A-117, Lolium multiflorum, dosage 80 g/ha): 80% | Herbicidal action against POLCO ([1]; post-emergence (PO) comparative experiment with A-117, Polygonum convolvulus, dosage 80 g/ha): 80% | Herbicidal activity ABUTH [1, 5]: 100% | Herbicidal activity ALOMY [1, 5]: 90% | Herbicidal activity AMARE [1, 5]: 90% | herbicidal activity AVEFA [1, 5]: 90% | Herbicidal activity ECHCG [1, 5]: 90% | Herbicidal activity PHBPU [1, 5]: 90% | Herbicidal activity LOLMU [1, 5]: 80% | Herbicidal activity MATIN [1, 5]: 90% | Herbicidal activity POLCO [1, 5]: 80% | Herbicidal activity SETVI [1, 5]: 90% | Herbicidal activity STEME [1, 5]: 90% | Herbicidal activity VERPE [1, 5]: 100% | Herbicidal activity VIOTR [1, 5]: 100% | herbicidal activity compared to compound No. A-117 ([1]; post-emergence comparative experiment, numerous harmful plants): superiority of the compound according to the invention was demonstrated clearly | Herbicidal action against ABUTH ([2]; pre-emergence (PE) comparative experiment with A-117, Abutilon theophrasti, dosage 320 g/ha): 100% | Herbicidal action against ALOMY ([2]; pre-emergence (PE) comparative experiment with A-117, Alopecurus myosuroides, dosage 320 g/ha): 90% | Herbicidal action against MATIN ([2]; pre-emergence (PE) comparative experiment with A-117, Matricaria inodora, dosage 320 g/ha): 100% | Herbicidal activity ABUTH [2]: 100% | Herbicidal activity AMARE [2]: 100% | Herbicidal activity CYPES [2]: 90% | Herbicidal activity ECHCG [2]: 100% | Herbicidal activity MATIN [2]: 100% | Herbicidal activity POLCO [2]: 80% | Herbicidal activity STEME [2]: 90% | Herbicidal activity VIOTR [2]: 100% | herbicidal activity compared to compound No. A-117 ([2]; pre-emergence comparative experiment, numerous harmful plants): superiority of the compound according to the invention was demonstrated clearly | Herbicidal action against SETVI ([3]; pre-emergence (PE) comparative experiment with A-117, Setaria viridis, dosage 320 g/ha): 100% | Herbicidal activity SETVI [3]: 100% | Herbicidal action against AVEFA ([4]; pre-emergence (PE) comparative experiment with A-117, Avena fatua, dosage 320 g/ha): 80% | herbicidal activity AVEFA [4]: 80%
